Read-outs that look alike come from different tables or passages of the source.
Legend:
[1] = target: T1, Human recombinant MKlp2 motor domain1-519, His tagged (Homo sapiens, UniProt O95235); assay: Microtubule stimulated ATPase activity of the MKlp2 motor domain (Kinesin ELIPA Assay Kit); type: biochemical
T1 construct: Human recombinant MKlp2 motor domain1-519, His tagged; His; purchased Cytoskeleton MP05
T1 sequence (O95235 1-519): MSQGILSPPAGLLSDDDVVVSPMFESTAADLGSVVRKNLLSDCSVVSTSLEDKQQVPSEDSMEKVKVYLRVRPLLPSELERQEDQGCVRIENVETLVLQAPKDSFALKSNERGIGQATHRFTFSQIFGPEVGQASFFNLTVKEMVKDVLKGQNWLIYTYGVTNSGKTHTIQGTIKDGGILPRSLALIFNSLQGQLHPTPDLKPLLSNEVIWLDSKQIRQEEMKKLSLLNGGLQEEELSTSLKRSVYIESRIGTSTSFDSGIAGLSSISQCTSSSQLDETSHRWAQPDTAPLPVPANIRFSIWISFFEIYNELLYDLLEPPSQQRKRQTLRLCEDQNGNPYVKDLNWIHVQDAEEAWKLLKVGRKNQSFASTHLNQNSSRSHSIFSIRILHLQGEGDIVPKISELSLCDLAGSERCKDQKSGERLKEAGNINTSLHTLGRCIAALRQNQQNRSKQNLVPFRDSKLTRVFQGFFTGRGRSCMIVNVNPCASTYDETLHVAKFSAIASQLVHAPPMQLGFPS
Protocol: Evaluation of Inhibitory Effects on the Microtubule Stimulated ATPase Activity of the MKlp2 Motor Domain.
MKlp2 ATPase activity was measured by monitoring real time free phosphate generation using the Kinesin ELIPA Assay Kit. The assay is based upon an absorbance shift (330 nm-360 nm) that occurs when 2-amino-6-mercapto-7-methylpurine ribonucleoside (MESG) is catalytically converted to 2-amino-6-mercapto-7-methylpurine in the presence of inorganic phosphate (Pi). One molecule of Pi will yield one molecule of 2-amino-6-mercapto-7-methylpurine in an essentially irreversible reaction.
All experiments were performed at 22° C.
Condition 1, compound preparation.
The compounds were dissolved in DMSO at 30× the maximum concentration to be tested. […] DMSO solutions were pipetted directly into each well.
Condition 2, reaction's “motor mix”.
The following were mixed sequentially in the specified order at RT to obtain the “motor mix”.
20 mL: 15 mM Pipes-NaOH pH 7.0, 10 mM MgCl2, 30 μM Tx (Buffer 1).
10 mL: 5× MSEG (ELIPA 1 reagent, Cat. # BK051).
10 mL: 2.5 mg/mL porcine brain microtubules (3×10 mg Cat. # MT002-XL resuspended in 12 mL of Buffer 1).
0.5 mL: 100×PNP (ELIPA 2 reagent, cat. # BK051).
Condition 3, reaction initiation.
The motor mix was pipetted into each well to obtain 80% of total volume. The reaction was initiated by adding a 20% of total volume of 5 mM ATP into each well.
The reactions were measured in a SpectraMax M2 (Molecular Devices) set in kinetic mode and 360 nm absorbance wavelength. The start protocol was 5 second rapid circular mixing, 21 readings, 30 seconds apart.

[2] = test system: K562 cells; assay: Cytotoxicity on human cancer cells (WST-1), K562; type: cell-based
Protocol: Evaluation of Cytotoxicity Effects on Human Cancer Cells
The effects of the compounds of the invention on the viability of human cancer cells were studied on various human cancer cell lines of differing tissue origins (A549, NCI-H460: lung cancer; MDA-MB-231: breast cancer; HCT-116, HT-29: colon cancer; MIA-PaCa-2: pancreatic cancer; K562: leukaemia). All cell lines were obtained from ATCC or ECACC. Cells were cultured in the culture media described below, under a 37° C., 5% CO2 humidified atmosphere, according to a standard operating procedure.
On D0, the cells were plated in 90 μl in 96 wells plates at densities ranging from 500 to 5,000 cells per well.
Following addition of the test substance the cells were protected from light. The solvents (DMSO and specific control solvent were added at the maximal concentration: 10 μl/well (3 wells/condition)).
On D4, the Cell Proliferation Reagent WST-1 was added to each well (10 μl/well), according to a standard operating procedure. The cells were then incubated for 30 min to 4 h at 37° C.-5% CO2. After these incubations, the 96-well plates were shaken thoroughly for 1 min with Multiskan® EX apparatus (Thermo Labsystems, France). The absorbence was measured at 450 nm, the reference wavelength being 620 nm. The analysis of the results was performed with the Ascent software 2.6 (Thermo Labsystems, France), Microsoft Excel 2003 and GraphPad Prism 4.03 softwares to give the concentration of the compounds that induces the death of 50% of the cells (IC50).

[3] = Table 6 (prodrugs, formula II), read-out: MKIp2 IC50
[4] = Table 6 (prodrugs, formula II), K562 cells, WST-1 on D4, read-out: K562 IC50
[5] = Table 3, 22° C., read-out: MKIp2 IC50
[6] = Table 4, K562 leukaemia cells, WST-1 on D4, read-out: K562 IC50
[7] = MKIp2 IC50 (μM), Table 3, 22° C.

Compound | IC50 [1, 5] [µM] | IC50 [2, 6] [µM] | IC50 [1, 7] [µM] | other results
COc1ccc(C#N)cc1/C=C(\C#N)c1cn(C(=O)CC(NC(=O)OC(C)(C)C)C(=O)OCc2ccccc2)c2ccc(Br)cc12 (stereo in doubt) [Example 65, (R,Z)-benzyl-4-(5-bromo-3-(1-cyano-2-(5-cyano-2-methoxyphenyl)vinyl)-1H-indol-1-yl)-2-(tert-butoxycarbonylamino)-4-oxobutanoate] |  |  |  | IC50 [1, 3]: 10.1 µM; IC50 [2, 4]: 0.04 µM
COc1ccc(C#N)cc1/C=C(\C#N)c1cn(C(=O)CCC(NC(=O)OC(C)(C)C)C(=O)OC(C)(C)C)c2ccc(Br)cc12 (stereo in doubt) [Example 66, (R,Z)-tert-butyl-5-(5-bromo-3-(1-cyano-2-(5-cyano-2-methoxyphenyl)vinyl)-1H-indol-1-yl)-2-(tert-butoxycarbonylamino)-5-oxopentanoate] |  |  |  | IC50 [1, 3]: 5.4 µM; IC50 [2, 4]: 0.03 µM
COc1ccc(C#N)cc1/C=C(\C#N)c1cn(C(=O)CC(N)C(=O)OCc2ccccc2)c2ccc(Br)cc12 (stereo in doubt) [Example 67, (R,Z)-benzyl-2-amino-4-(5-bromo-3-(1-cyano-2-(5-cyano-2-methoxyphenyl)vinyl)-1H-indol-1-yl)-4-oxobutanoate] |  |  |  | IC50 [1, 3]: 3.1 µM; IC50 [2, 4]: 0.04 µM
N#C/C(=C\c1cnccc1Cl)c1c[nH]c2ccc(Cl)cc12 [Example 3, (Z)-2-(5-chloro-1H-indol-3-yl)-3-(4-chloropyridin-3-yl)acrylonitrile] | 0.8 | 3.6 |  | 
N#C/C(=C\c1cnccc1Cl)c1c[nH]c2ccc(Br)cc12 [Example 4, (Z)-2-(5-bromo-1H-indol-3-yl)-3-(4-chloropyridin-3-yl)acrylonitrile] | 0.7 | 1.4 |  | 
COc1ccncc1/C=C(/C#N)c1c[nH]c2ccc(Br)cc12 [Example 5b, (E)-2-(5-bromo-1H-indol-3-yl)-3-(4-methoxypyridin-3-yl)acrylonitrile] | 0.61 | 3.92 |  | 
CN(C)c1ccncc1/C=C(\C#N)c1c[nH]c2ccc(Br)cc12 [Example 8, (Z)-2-(5-bromo-1H-indol-3-yl)-3-(4-(dimethylamino)pyridin-3-yl)acrylonitrile] | 0.9 | 7.5 |  | 
COc1ccncc1/C=C(\C#N)c1c[nH]c2ccc(Cl)cc12 [Example 9, (Z)-2-(5-chloro-1H-indol-3-yl)-3-(4-methoxypyridin-3-yl)acrylonitrile] | 0.1 | 1.4 |  | 
COc1ccc2[nH]cc(/C(C#N)=C/c3cnccc3OC)c2c1 [Example 12, (Z)-2-(5-methoxy-1H-indol-3-yl)-3-(4-methoxypyridin-3-yl)acrylonitrile] | 0.3 | 0.9 |  | 
CSc1ccncc1/C=C(\C#N)c1c[nH]c2ccc(Br)cc12 [Example 15, (Z)-2-(5-bromo-1H-indol-3-yl)-3-(4-(methylthio)pyridin-3-yl)acrylonitrile] | 0.2 | 2.9 |  | 
CCN(CC)c1ccncc1/C=C(\C#N)c1c[nH]c2ccc(Br)cc12 [Example 24, (Z)-2-(5-bromo-1H-indol-3-yl)-3-(4-(diethylamino)pyridin-3-yl)acrylonitrile] | 1.1 | 3.1 |  | 
N#C/C(=C\c1cnccc1-c1ccoc1)c1c[nH]c2ccc(Cl)cc12 [Example 29, (Z)-2-(5-chloro-1H-indol-3-yl)-3-(4-(furan-3-yl)pyridin-3-yl)acrylonitrile] | 0.03 | 4.7 |  | 
N#C/C(=C\c1cnccc1-c1ccoc1)c1c[nH]c2ccc(Br)cc12 [Example 34, (Z)-2-(5-bromo-1H-indol-3-yl)-3-(4-(furan-3-yl)pyridin-3-yl)acrylonitrile] | 0.07 | 2.2 |  | 
N#C/C(=C/c1cnccc1-c1ccoc1)c1c[nH]c2ccc(Br)cc12 [Example 34b, (E)-2-(5-bromo-1H-indol-3-yl)-3-(4-(furan-3-yl)pyridin-3-yl)acrylonitrile] | 0.96 | 14.3 |  | 
N#C/C(=C\c1c[n+]([O-])ccc1-c1ccoc1)c1c[nH]c2ccc(Br)cc12 [Example 48, (Z)-3-(2-(5-bromo-1H-indol-3-yl)-2-cyanovinyl)-4-(furan-3-yl)pyridine-1-oxide] | 0.73 | 6.71 |  | 
COc1cc[n+]([O-])cc1/C=C(\C#N)c1c[nH]c2ccc(Cl)cc12 [Example 49, (Z)-3-(2-(5-chloro-1H-indol-3-yl)-2-cyanovinyl)-4-methoxypyridine 1-oxide] | 0.56 | 9.23 |  | 
N#C/C(=C\c1cnccc1O)c1c[nH]c2ccc(Cl)cc12 [Example 50, (Z)-2-(5-chloro-1H-indol-3-yl)-3-(4-hydroxypyridin-3-yl)acrylonitrile] |  | 14.7 |  | 
N#C/C(=C\c1cc(C#N)ccc1O)c1c[nH]c2ccc(Br)cc12 [Example 51, (Z)-3-(2-(5-bromo-1H-indol-3-yl)-2-cyanovinyl)-4-hydroxybenzonitrile] |  | 0.5 |  | 
N#C/C(=C\c1cc(C#N)ccc1OC(F)(F)F)c1c[nH]c2ccc(Cl)cc12 [Example 52, (Z)-3-(2-(5-chloro-1H-indol-3-yl)-2-cyanovinyl)-4-(trifluoromethoxy)benzonitrile] |  | 0.85 |  | 
N#C/C(=C\c1cc(C#N)ccc1OC(F)(F)F)c1c[nH]c2ccc(Br)cc12 [Example 53, (Z)-3-(2-(5-bromo-1H-indol-3-yl)-2-cyanovinyl)-4-(trifluoromethoxy)benzonitrile] |  | 0.38 |  | 
N#CC(=Cc1cccnc1)c1c[nH]c2ccccc12 [W02010/150211-Example 1, reference compound] |  |  |  | IC50 ([2]; K562, read-out: K562 IC50 (μM)): 21.4 µM
CCOc1ccc2[nH]cc(C(C#N)=Cc3cccnc3)c2c1 [W02010/150211-Example 22, reference compound] |  |  | 5.2 | 
CC(C)Oc1ccc2[nH]cc(C(C#N)=Cc3cccnc3)c2c1 [W02010/150211-Example 23, reference compound] |  |  | 5.2 | 
N#CC(=Cc1cccnc1)c1c[nH]c2ccc(Cl)cc12 [W02010/150211-Example 24, reference compound] |  |  | 1.1 | 
COc1ccc2c(C(C#N)=Cc3cccnc3)c[nH]c2c1 [W02010/150211-Example 26, reference compound] |  |  | 26.5 | 
COc1ccc2[nH]cc(C(C#N)=Cc3ccc(F)nc3)c2c1 [W02010/150211-Example 28, reference compound] |  |  | 2.4 | 
COc1ccc2[nH]cc(C(C#N)=Cc3cccc(C#N)c3)c2c1 [W02010/150211-Example 30, reference compound] |  |  | 4.4 | 
COc1ccc2[nH]cc(C(C#N)=Cc3cnccc3C)c2c1 [W02010/150211-Example 31, reference compound] |  |  | 2.3 | 
COc1ccc2[nH]cc(C(C#N)=Cc3cnccc3Cl)c2c1 [W02010/150211-Example 47, reference compound] |  |  | 1.6 | 
COc1ccc2[nH]cc(C(C#N)=Cc3ccc(OC)nc3)c2c1 [W02010/150211-Example 52, reference compound] |  |  | 12.6 | 

— patent US10189782B2, “Derivatives of indole for the treatment of cancer, viral infections and lung diseases” (BIOKINESIS, priority 2012, dated 2019)
